Experimental findings from ChEMBL document CHEMBL1201862, “PubChem BioAssay data set” (2004) are described below.

Test systems include HOP-62; SF-295; M19-MEL; TK-10; LOX IMVI; M14; CCRF-CEM; SR; NCI-H460; NCI-H23; OVCAR-8; SK-MEL-2; IGROV-1; CAKI-1; MCF7; NCI/ADR-RES; MDA-N; HOP-92; T47D.
What all share (assay): growth of human tumour cells (NCI), 48 h

SMILES strings stand for the structures.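 Compound exposure: 48 hours, 5 concentrations, 96-well plates. GI50 = concentration required for 50% inhibition of growth.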 Active and inactive are the calls of the source. Cut-off read from the data, not from the text of the source: active = GI50 up to about 1.1 µM and inactive = higher.

Take `O=C1CCCCCCC2=C1C(Sc1ccccc1)CC2` (configuration not stated): the GI50 with HOP-62 is > 100 µM (inactive); in the test on SF-295 it was 45 µM (inactive); with M19-MEL it was 50.2 µM (inactive); with TK-10 it was 36.6 µM (inactive); with LOX IMVI it was 15.8 µM (inactive); in the test with M14 it was 45.9 µM (inactive). For the same molecule, the GI50 with CCRF-CEM is 9.08 µM (inactive); in the test with SR it was 18.2 µM (inactive); with NCI-H460, 27.2 µM (inactive); in the test on NCI-H23, 33.9 µM (inactive); with OVCAR-8, 23 µM (inactive).

Consider `CCOC(=O)NC(=O)c1cn(C(CC)COC(=O)NCCCCCCNC(=O)OCC(CC)n2cc(C(=O)NC(=O)OCC)c(=O)[nH]c2=O)c(=O)[nH]c1=O` (configuration not stated), for which the GI50 with SK-MEL-2, with HOP-62, in the test on SF-295, in the test on M19-MEL, in the test on LOX IMVI and with M14 was > 100 µM (inactive) each time. The GI50 in the test with CCRF-CEM, with IGROV-1, in the test on CAKI-1, with NCI-H460 and in the test on OVCAR-8 was > 100 µM (inactive) in each case.

As to `CCOC(=O)C(Cc1ccc(N(CCCl)CCCl)cc1)NC(=O)CCCN1C(=O)CN=C(c2ccccc2)c2cc(Cl)ccc21` (configuration not stated), the GI50 with SK-MEL-2 was 14.7 µM (inactive); in the test with HOP-62, 36.9 µM (inactive); with MCF7, 8.53 µM (inactive); with NCI/ADR-RES it was 22 µM (inactive); in the test on SF-295 it was 51.4 µM (inactive); with TK-10 it was > 66.5 µM (inactive). Besides, the GI50 with LOX IMVI was 3.18 µM (inactive); with MDA-N, 6.11 µM (inactive); with M14 it was 7 µM (inactive); in the test with CCRF-CEM, 2.61 µM (inactive); in the test on IGROV-1, 4.37 µM (inactive); in the test with SR it was 2.31 µM (inactive). Also, the GI50 was 3.77 µM (inactive) in the test with HOP-92; 15.2 µM (inactive) in the test on CAKI-1; 3.55 µM (inactive) in the test on T47D; 5.35 µM (inactive) with NCI-H460; 9.66 µM (inactive) in the test on NCI-H23; 18.7 µM (inactive) in the test with OVCAR-8.

For the molecule `C#CCn1c(=O)c(C)cn(/C(=C/C(=O)OCC)C(=O)OCC)c1=O`, the GI50 with SK-MEL-2 is 13.2 µM (inactive); with HOP-62, 15.8 µM (inactive); in the test on MCF7, 2.97 µM (inactive); in the test with NCI/ADR-RES, 3.91 µM (inactive); in the test on SF-295, 18.5 µM (inactive); in the test on TK-10, 2.01 µM (inactive). Also, the GI50 with LOX IMVI was 10.4 µM (inactive); in the test on MDA-N, 15 µM (inactive); with M14, 2.92 µM (inactive); with CCRF-CEM, 1.04 µM (active); in the test with IGROV-1, 3.75 µM (inactive); with SR, 3.5 µM (inactive). Further, the GI50 in the test on HOP-92 was 3.01 µM (inactive); with CAKI-1 it was 1.66 µM (inactive); with T47D it was 4.73 µM (inactive); with NCI-H460 it was 1.95 µM (inactive); in the test with NCI-H23, 9.57 µM (inactive); in the test with OVCAR-8, 2.49 µM (inactive).

Take `Cn1c(=S)[nH]c(N)c(Cc2ccccc2)c1=O`: the GI50 with SK-MEL-2 was > 100 µM (inactive); in the test with HOP-62 it was > 100 µM (inactive); with MCF7, > 100 µM (inactive); in the test with NCI/ADR-RES, 64.4 µM (inactive); with SF-295 it was > 100 µM (inactive); in the test with TK-10, 81.8 µM (inactive). Besides, the GI50 in the test with LOX IMVI was > 100 µM (inactive); in the test with MDA-N, > 100 µM (inactive); with M14 it was > 100 µM (inactive); in the test with CCRF-CEM, > 100 µM (inactive); with IGROV-1, 21.2 µM (inactive); in the test with SR, 67.5 µM (inactive). Also, the GI50 with HOP-92 is 25.6 µM (inactive); in the test on CAKI-1 it was > 100 µM (inactive); in the test with T47D it was 40.3 µM (inactive); in the test with NCI-H460, > 100 µM (inactive); with NCI-H23 it was > 100 µM (inactive); with OVCAR-8, 93.8 µM (inactive).

On to `CCc1ccc(/C=C/C(=O)C2CN(CC)CCC2(O)/C=C/c2ccc(CC)cc2)cc1` (configuration not stated), for which the GI50 in the test with SK-MEL-2 is 7.18 µM (inactive); with HOP-62, 1.91 µM (inactive); with MCF7 it was 2.42 µM (inactive); in the test on NCI/ADR-RES, 3.47 µM (inactive); in the test on SF-295, 2.94 µM (inactive); with TK-10 it was 2.34 µM (inactive). In addition, the GI50 with LOX IMVI is 1.51 µM (inactive); in the test with MDA-N, 3.23 µM (inactive); in the test on M14 it was 2.61 µM (inactive); with CCRF-CEM, 1.87 µM (inactive); in the test with IGROV-1 it was 2.06 µM (inactive); in the test on SR, 1.71 µM (inactive). For the same molecule, the GI50 in the test with HOP-92 is 1.71 µM (inactive); in the test on CAKI-1, 6.59 µM (inactive); in the test with T47D, 4.15 µM (inactive); in the test on NCI-H460, 2.22 µM (inactive); in the test with NCI-H23, 4.61 µM (inactive); in the test on OVCAR-8, 3.3 µM (inactive).

`CC(=O)OCC1OC(O/C=C(\CN=[N+]=[N-])C(C)=O)C(OC(C)=O)C(OC(C)=O)C1OC(C)=O` (configuration not stated): the GI50 with SK-MEL-2 is 16.1 µM (inactive); in the test on HOP-62 it was 25.6 µM (inactive); in the test on MCF7, 7.62 µM (inactive); in the test with NCI/ADR-RES it was 21 µM (inactive); in the test with SF-295, 37.2 µM (inactive); in the test on TK-10, 6.19 µM (inactive). In addition, the GI50 was 3.47 µM (inactive) in the test on LOX IMVI; 8.85 µM (inactive) in the test on MDA-N; 8 µM (inactive) with M14; 1.39 µM (inactive) with CCRF-CEM; 15.6 µM (inactive) in the test with IGROV-1; 2.37 µM (inactive) with SR. In addition, the GI50 in the test with HOP-92 is 6.15 µM (inactive); in the test on CAKI-1, 3.01 µM (inactive); in the test on T47D, 3.67 µM (inactive); with NCI-H460, 21.6 µM (inactive); in the test on NCI-H23 it was 9.44 µM (inactive); with OVCAR-8, 6.01 µM (inactive).

In the case of `Cn1c2ccc3cc2c(=S)c2cc(ccc21)OCCOCCOCCOCCOCCO3`, the GI50 in the test with SK-MEL-2, in the test on HOP-62, in the test with MCF7, in the test on NCI/ADR-RES, in the test on SF-295 and in the test on TK-10 was > 10 µM (inactive) in each case. Further, the GI50 in the test with LOX IMVI, in the test on MDA-N, in the test on M14, in the test with CCRF-CEM, with IGROV-1 and in the test on SR was > 10 µM (inactive) in each case. Besides, the GI50 in the test on HOP-92, with CAKI-1, with T47D, with NCI-H460, with NCI-H23 and in the test with OVCAR-8 was > 10 µM (inactive) in each case.

On to `N=C(N)NS(=O)(=O)c1ccc(Nc2c3ccccc3nc3c(C(=O)NC(CO)(CO)CO)cccc23)cc1`, for which the GI50 with SK-MEL-2 is 19.1 µM (inactive); in the test on HOP-62, 13.6 µM (inactive); in the test with MCF7 it was 3.44 µM (inactive); in the test on NCI/ADR-RES it was > 100 µM (inactive); with SF-295, 16.6 µM (inactive); in the test on TK-10, 47.3 µM (inactive). The GI50 was 18.7 µM (inactive) in the test with LOX IMVI; 35.6 µM (inactive) in the test with MDA-N; 30.6 µM (inactive) with M14; 4.63 µM (inactive) in the test with CCRF-CEM; 37.6 µM (inactive) in the test with IGROV-1; 12.5 µM (inactive) in the test on SR. Further, the GI50 was 14.4 µM (inactive) in the test on HOP-92; 34.5 µM (inactive) with CAKI-1; 4.7 µM (inactive) in the test on T47D; 2.88 µM (inactive) with NCI-H460; 36.5 µM (inactive) in the test with NCI-H23; 29 µM (inactive) in the test with OVCAR-8.

Turning to `CN1C(=O)C2(Cc3cn(C45CC67SSC(CO)(C(=O)N6C4Nc4ccccc45)N(C)C7=O)c4ccccc34)SSC1(CO)C(=O)N2C` (configuration not stated), the GI50 is 0.1 µM (active) in the test on SK-MEL-2; 0.0634 µM (active) in the test with HOP-62; < 0.01 µM (active) in the test with MCF7; 0.0197 µM (active) with NCI/ADR-RES; 0.309 µM (active) in the test on SF-295; 0.0243 µM (active) in the test on TK-10. Moreover, the GI50 was 0.0114 µM (active) in the test with LOX IMVI; 0.0198 µM (active) in the test with MDA-N; < 0.01 µM (active) with M14; 1.52 µM (inactive) in the test on CCRF-CEM; 0.0165 µM (active) in the test on IGROV-1; < 0.01 µM (active) in the test on SR. Also, the GI50 with HOP-92 is 0.053 µM (active); with CAKI-1, < 0.01 µM (active); in the test on T47D it was < 0.01 µM (active); in the test on NCI-H460, 0.218 µM (active); with NCI-H23 it was < 0.01 µM (active); in the test with OVCAR-8, 0.0206 µM (active).

`CCCCNc1nc(SC)nc2[nH]cnc12`: the GI50 with SK-MEL-2, in the test with HOP-62, with MCF7, in the test on NCI/ADR-RES, in the test on SF-295 and with TK-10 was > 100 µM (inactive) in each case. The GI50 in the test on LOX IMVI, in the test with MDA-N, in the test with M14, with CCRF-CEM, in the test on IGROV-1 and in the test on SR was > 100 µM (inactive) throughout. Also, the GI50 was > 59 µM (inactive) in the test on HOP-92; > 100 µM (inactive) in the test with CAKI-1; > 100 µM (inactive) with T47D; > 100 µM (inactive) in the test on NCI-H460; > 100 µM (inactive) in the test on NCI-H23; > 64.4 µM (inactive) in the test with OVCAR-8.

In the case of `Oc1cc(-c2ccc(F)cc2)nc2ncc(Cl)cc12`, the GI50 is 26.2 µM (inactive) in the test on SK-MEL-2; 32.2 µM (inactive) with HOP-62; 12.3 µM (inactive) in the test on MCF7; 18 µM (inactive) in the test on NCI/ADR-RES; 18.1 µM (inactive) in the test on SF-295; > 83.4 µM (inactive) with TK-10. The GI50 in the test with LOX IMVI is 28.6 µM (inactive); with MDA-N it was 2.94 µM (inactive); in the test on M14 it was 26.9 µM (inactive); with CCRF-CEM, 18.7 µM (inactive); in the test on IGROV-1, 17.1 µM (inactive); in the test on SR, 3.09 µM (inactive). Besides, the GI50 is 2.94 µM (inactive) in the test with HOP-92; 33 µM (inactive) in the test with CAKI-1; 48.4 µM (inactive) in the test with T47D; 15.4 µM (inactive) in the test with NCI-H460; 38.2 µM (inactive) in the test on NCI-H23; 38.5 µM (inactive) in the test on OVCAR-8.
